{
  "source": "patent US8668905B2",
  "about": "(priority 2005, dated 2014)",
  "origin": "cited, not measured here",
  "system": "drug-resistant SCLC",
  "data": [
    {"smiles": "CC(=O)O[C@H]1C(=O)[C@@]2(C)[C@H]([C@H](OC(=O)c3ccccc3)[C@]3(O)C[C@H](OC(=O)[C@H](O)[C@@H](NC(=O)c4ccccc4)c4ccccc4)C(C)=C1C3(C)C)[C@]1(OC(C)=O)CO[C@@H]1C[C@@H]2O", "note": "[Taxol, Paclitaxel]", "values": [
      {"measurement": "life-threatening toxicity", "setting": "(Smit, 1998)", "result": "20 % of patients"},
      {"measurement": "median survival", "setting": "drug-resistant SCLC patients (Smit, 1998)", "result": 100, "unit": "days"}
    ]}
  ]
}
